{"source": "patent US20080039337A1", "about": "“Method for Detection of Conformational Change of a Protein Immobilized on a Substrate” (FUENCE CO., LTD., priority 2004, published 2008)", "molecular_target": "T1, Amyloid β (1-42) (Homo sapiens, UniProt P05067)", "T1 construct": "Amyloid β (1-42); purchased Bachem AG, Bubendorf, Switzerland (printed 'Bachem A G, Budendorf')", "T1 sequence (P05067 672-713)": "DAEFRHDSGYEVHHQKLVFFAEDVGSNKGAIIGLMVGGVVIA", "experiment": "Detection of conformational change to β-sheet structure of amyloid β (1-42) film immobilized on a substrate, by fluorescent dye binding", "format": "biochemical", "conditions": "film immersed into 1 mM ZnCl2 in 10 mM Hepes pH 7.4, 0.15 M NaCl for 10 minutes; dye 1-fluoro-2,5-bis(3-carboxy-4-hyrdoxystyryl)benzene; compared with buffer only and with EDTA after ZnCl2", "protocol": "Amyloid β (1-42) (Bachem A G, Budendorf, Switzerland) was dissolved in 0.1% ammonia water at the concentration of 1 mg/mL. This solution was sprayed under dry air using an electrospry device described in WO 2002-511792 or an immobilzing device described in Japanese Patent Publication No. 2003-136005. The solution was permeated through a mask with holes of 400 μm in length and 800 μm in width, and then a film having 1 μm thickness was prepared using an electrospray method (the EDS method), then protein was cross-linked at 30° C. for 5 minutes by glutaraldehyde.\nThe resulting film was immersed into 10 mM Hepes pH 7.4 buffer solution (hereinafter referred to as “the buffer solution”) containing 0.15 M NaCl for 10 minutes, in the presence or absence of ZnCl2, except that the EDTA sample was only reacted with 1 mM ZnCl2 and then immersed in a buffer solution containing 1 mM EDTA for 10 minutes. After that the film was immersed into a solution of 1-fluoro-2,5-bis(3-carboxy-4-hyrdoxystyryl)benzene (Dojindo Chemical Laboratory Co., Kumamoto) that binds to β-sheet structure, prepared to the final concentration of 0.01% using 50% ethanol solution. Furthermore, the film was immersed into a solution of saturated lithium carbonate, then it was lightly washed by 50% ethanol, then dried and observed under fluorescent microscope. […]", "data": [{"smiles": "[Cl-].[Cl-].[Zn+2]", "note": "[ZnCl2]", "values": [{"measurement": "fluorescent intensity of the film (relative intensity), indicating change of amyloid β to β sheet structure", "value": "the highest"}]}]}
